Experimental data taken from patent US20180099931A1 (AbbVie S.à.r.l., priority 2016, published 2018).
Like-named read-outs stand apart in the source and are kept apart here.

Target: T1, F508delCFTR (Homo sapiens, UniProt P13569, DEL508-508)
T1 construct: expressed in transfected cells; host or cells: CFBE41o- human lung-derived epithelial cells (CFBE4lo-F508delCFTR-HRP), doxycycline-inducible
Assay: Cell Surface Expression-Horse Radish Peroxidase (CSE-HRP) Assay;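 as to Maximum % activity (with co-corrector): co-corrector and positive control are both the same reference corrector at 2 µM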;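 as to Maximum % activity (without co-corrector): percent of the 2 µM on-plate positive control corrector response above DMSO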
Assay type: cell-based
Conditions: for Emax: read-out: Maximum % activity (without co-corrector)

[1] = test compound without co-corrector, maximum at any tested concentration, normalized to on-plate positive control
[2] = test compound without co-corrector, read-out: EC50 (without co-corrector)
[3] = with co-corrector (2 μM of 3-[(2R,4R)-4-({[1-(2,2-difluoro-1,3-benzodioxol-5-yl)cyclopropyl]carbonyl}amino)-7-methoxy-3,4-dihydro-2H-chromen-2-yl]benzoic acid), maximum at any tested concentration, normalized to on-plate positive control
[4] = with co-corrector (2 μM of 3-[(2R,4R)-4-({[1-(2,2-difluoro-1,3-benzodioxol-5-yl)cyclopropyl]carbonyl}amino)-7-methoxy-3,4-dihydro-2H-chromen-2-yl]benzoic acid), read-out: EC50 (with co-corrector)
[5] = with co-corrector (2 μM), maximum at any tested concentration, normalized to on-plate positive control
[6] = CSE-HRP, test compound without co-corrector, read-out: EC50 (without co-corrector)
[7] = CSE-HRP, with co-corrector (2 μM of 3-[(2R,4R)-4-({[1-(2,2-difluoro-1,3-benzodioxol-5-yl)cyclopropyl]carbonyl}amino)-7-methoxy-3,4-dihydro-2H-chromen-2-yl]benzoic acid), read-out: EC50 (with co-corrector)
[8] = CSE-HRP, with co-corrector (2 μM), maximum at any tested concentration, normalized to on-plate positive control
[9] = CSE-HRP, without co-corrector, maximum at any tested concentration, normalized to on-plate positive control
[10] = without co-corrector, maximum at any tested concentration, normalized to on-plate positive control

T1 sequence (P13569 with tags, fused parts or gaps DEL508-508): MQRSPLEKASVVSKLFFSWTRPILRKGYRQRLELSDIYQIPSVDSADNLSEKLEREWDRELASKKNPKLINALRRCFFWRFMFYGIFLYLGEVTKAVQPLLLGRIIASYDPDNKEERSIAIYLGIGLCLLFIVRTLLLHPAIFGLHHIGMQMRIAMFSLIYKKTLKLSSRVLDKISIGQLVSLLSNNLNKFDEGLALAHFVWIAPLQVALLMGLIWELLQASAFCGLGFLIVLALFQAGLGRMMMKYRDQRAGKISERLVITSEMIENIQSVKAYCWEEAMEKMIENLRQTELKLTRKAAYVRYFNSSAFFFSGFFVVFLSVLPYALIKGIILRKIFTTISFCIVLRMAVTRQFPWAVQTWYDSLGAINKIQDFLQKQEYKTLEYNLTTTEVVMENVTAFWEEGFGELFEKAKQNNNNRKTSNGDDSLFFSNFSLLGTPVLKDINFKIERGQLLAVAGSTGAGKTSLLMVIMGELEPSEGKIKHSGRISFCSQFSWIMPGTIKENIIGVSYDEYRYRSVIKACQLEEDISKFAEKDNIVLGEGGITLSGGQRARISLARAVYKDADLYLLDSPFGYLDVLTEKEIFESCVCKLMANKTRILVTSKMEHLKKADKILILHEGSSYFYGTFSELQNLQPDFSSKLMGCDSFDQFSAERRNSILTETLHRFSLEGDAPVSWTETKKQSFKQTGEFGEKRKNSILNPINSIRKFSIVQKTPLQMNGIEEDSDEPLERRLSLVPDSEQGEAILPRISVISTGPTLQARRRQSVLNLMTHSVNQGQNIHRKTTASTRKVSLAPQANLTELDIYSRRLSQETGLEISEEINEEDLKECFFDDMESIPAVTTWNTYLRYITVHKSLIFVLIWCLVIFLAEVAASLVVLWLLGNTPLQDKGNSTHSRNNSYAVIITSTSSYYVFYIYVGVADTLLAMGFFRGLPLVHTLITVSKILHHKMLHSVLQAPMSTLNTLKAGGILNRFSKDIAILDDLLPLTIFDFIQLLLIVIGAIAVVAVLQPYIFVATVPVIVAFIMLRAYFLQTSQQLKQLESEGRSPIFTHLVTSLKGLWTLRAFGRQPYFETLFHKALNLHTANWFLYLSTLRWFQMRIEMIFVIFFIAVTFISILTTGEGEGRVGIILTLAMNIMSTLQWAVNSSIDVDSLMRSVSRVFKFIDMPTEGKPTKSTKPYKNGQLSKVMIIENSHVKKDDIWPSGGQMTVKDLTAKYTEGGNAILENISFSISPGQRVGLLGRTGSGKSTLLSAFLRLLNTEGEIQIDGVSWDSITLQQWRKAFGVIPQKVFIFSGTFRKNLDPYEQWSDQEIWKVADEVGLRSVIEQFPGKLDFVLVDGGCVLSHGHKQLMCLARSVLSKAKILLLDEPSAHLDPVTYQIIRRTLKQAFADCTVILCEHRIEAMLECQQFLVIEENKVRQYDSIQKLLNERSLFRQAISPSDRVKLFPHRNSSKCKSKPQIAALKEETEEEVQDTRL

Structure (SMILES) | Emax [1] | EC50 [2] | Maximum % activity (with co-corrector) [3] | EC50 [4] | Maximum % activity (with co-corrector) [5] | EC50 [6] | EC50 [7] | Maximum % activity (with co-corrector) [8] | Emax [9] | Emax [10] | Maximum % activity (without co-corrector) [9]
COc1ccc2cc(C)nc(N[C@H]3[C@H](C(C)(C)C)[C@@H](C(=O)O)N(C(=O)C4CCCCC4)[C@H]3c3ccccc3)c2c1 [III-154] | < 100% | 1000 to 10000 nM | – | 1000 to 10000 nM | ++ (≥150 and <350) | – | – | – | – | – | –
COc1ccc(C(F)(F)F)cc1CN[C@H]1[C@H](C(C)(C)C)[C@@H](C(=O)O)N(C(=O)[C@@H]2OCC[C@@H]2C(C)C)[C@H]1c1ccccc1 (relative stereo) [Example I-105] | – | 1000 to 10000 nM | – | 1000 to 10000 nM | +++ (≥350) | – | – | – | – | < 100% | –
CC(C)(C)[C@H]1[C@H](NCc2ccc3occc3c2)[C@H](c2ccccc2)N(C(=O)C2CCCCC2)[C@@H]1C(=O)O [III-135] | < 100% | > 10000 nM | – | 1000 to 10000 nM | ++ (≥150 and <350) | – | – | – | – | – | –
COc1ccc(C23CC(C2)C3)cc1CN[C@H]1[C@H](C(C)(C)OC)[C@@H](C(=O)O)N(C(=O)OC(C)C)[C@H]1c1cccnc1N(C)C [II-501] | > 200% | 1000 to 10000 nM | +++ (≥350) | 1000 to 10000 nM | – | – | – | – | – | – | –
COc1ccc(C(C)(C)C)cc1CN[C@H]1[C@H](C(C)(C)C)[C@@H](C(=O)O)N(C(=O)[C@@H]2CCC[C@H](O)C2)[C@H]1c1ccccc1 [II-515] | 100 to 200% | 1000 to 10000 nM | +++ (≥350) | 1000 to 10000 nM | – | – | – | – | – | – | –
COc1ccc(C2=CCOC2)cc1CN[C@H]1[C@H](C(C)(C)C)[C@@H](C(=O)O)N(C(=O)C2CCCCC2)[C@H]1c1ccccc1 [II-293] | – | – | – | – | – | 1000 to 10000 nM | 1000 to 10000 nM | +++ (≥350) | 100 to 200% | – | –
COc1ncc(C(F)(F)F)cc1CN[C@H]1[C@H](C(C)(C)C)[C@@H](C(=O)O)N(C(=O)C23CC(C2)C3)[C@H]1c1ccccc1C(C)C [Example I-272] | – | – | – | – | – | 1000 to 10000 nM | < 1000 nM | +++ (≥350) | 100 to 200% | – | –
COc1ncc(C(F)(F)F)cc1CN[C@H]1[C@H](C(C)(C)C)[C@@H](C(=O)O)N(C(=O)C2CCc3ccc(F)cc3O2)[C@H]1c1ccccc1 (some centres unmarked) [II-435] | < 100% | 1000 to 10000 nM | ++ (≥150 and <350) | 1000 to 10000 nM | – | – | – | – | – | – | –
COc1ccc(C(C)(C)C)cc1CN[C@H]1[C@H](C(C)(C)C)[C@@H](C(=O)O)N(C(=O)C(OC)c2cccc(Cl)c2)[C@H]1c1ccccc1 (single isomer, unassigned) [II-271] | – | – | – | – | – | 1000 to 10000 nM | < 1000 nM | +++ (≥350) | – | – | +++ (≥200)
COc1ccc(C(C)(C)C)cc1CN[C@H]1[C@H](C(C)(C)C)[C@@H](C(=O)O)N(C(=O)c2cnn(-c3ccccc3C)c2C)[C@H]1c1ccccc1 [II-228] | – | – | – | – | – | < 1000 nM | < 1000 nM | +++ (≥350) | > 200% | – | –
COc1cc(C(F)(F)F)ccc1CN[C@H]1[C@H](C(C)(C)C)[C@@H](C(=O)O)N(C(=O)C(C)c2ccccc2)[C@H]1c1ccccc1 (relative stereo) [Example 11, (2S,3S,4S,5S)-3-tert-butyl-4-({[2-methoxy-4-(trifluoromethyl)phenyl]methyl}amino)-5-phenyl-1-[(2R*)-2-phenylpropanoyl]pyrrolidine-2-carboxylic acid] | – | 1000 to 10000 nM | – | 1000 to 10000 nM | +++ (≥350) | – | – | – | – | 100 to 200% | –
COc1ccc(C(C)C)cc1CN[C@H]1[C@H](C(C)(C)C)[C@@H](C(=O)O)N(C(=O)OC(C)C)[C@H]1c1ccccc1 [II-169] | – | – | – | – | – | 1000 to 10000 nM | 1000 to 10000 nM | +++ (≥350) | > 200% | – | –
CC(C)OC(=O)N1[C@H](C(=O)O)[C@@H](C(C)(C)C)[C@H](NCC2CCCC(C(F)(F)F)C2)[C@@H]1c1ccccc1 (some centres unmarked) [II-584] | < 100% | 1000 to 10000 nM | ++ (≥150 and <350) | 1000 to 10000 nM | – | – | – | – | – | – | –
CCc1c(C(=O)N2[C@H](C(=O)O)[C@@H](C(C)(C)C)[C@H](NCc3cc(C(C)(C)C)ccc3OC)[C@@H]2c2ccccc2)c(C)nn1-c1ccc(F)cc1 [II-359] | > 200% | 1000 to 10000 nM | +++ (≥350) | 1000 to 10000 nM | – | – | – | – | – | – | –
COc1ccc(C(C)(C)C)cc1CN[C@H]1[C@H](C(C)(C)C)[C@@H](C(=O)O)N(C(=O)C2CCOC(C(C)C)C2)[C@H]1c1ccccc1 (some centres unmarked) [III-179] | > 200% | 1000 to 10000 nM | – | < 1000 nM | +++ (≥350) | – | – | – | – | – | –
CCCOC(=O)N1[C@H](C(=O)O)[C@@H](C(C)(C)C)[C@H](NCc2cc(C(C)(C)C)ccc2OC)[C@@H]1c1ccccc1 [II-390] | > 200% | 1000 to 10000 nM | +++ (≥350) | 1000 to 10000 nM | – | – | – | – | – | – | –
COc1ccnc(CN[C@@H]2[C@@H](C(C)(C)C)[C@H](C(=O)O)N(C(=O)C3CCCCC3)[C@@H]2c2ccccc2)n1 (racemic) [III-22] | < 100% | > 10000 nM | + (<150) | > 10000 nM | – | – | – | – | – | – | –
COc1cccc([C@H]2[C@@H](Nc3cccc(OC(F)F)n3)[C@H](C(C)(C)C)[C@@H](C(=O)O)N2C(=O)C2(C)CCCOC2)n1 (mixture of isomers) [III-76] | < 100% | > 10000 nM | ++ (≥150 and <350) | 1000 to 10000 nM | – | – | – | – | – | – | –
CC(C)Oc1ccc(Cl)cc1CN[C@H]1[C@H](C(C)(C)C)[C@@H](C(=O)O)N(C(=O)C2CCCCC2)[C@H]1c1ccccc1 [III-124] | < 100% | 1000 to 10000 nM | – | < 1000 nM | +++ (≥350) | – | – | – | – | – | –
COc1ccc(C(C)(C)C)cc1CN[C@H]1[C@H](C(C)(C)C)[C@@H](C(=O)O)N(C(=O)c2c(C)nn(-c3ccccc3)c2C)[C@H]1c1ccccc1 [II-229] | – | – | – | – | – | 1000 to 10000 nM | 1000 to 10000 nM | +++ (≥350) | > 200% | – | –

The remaining lines, values ahead:

Emax [1] | EC50 [2] | Maximum % activity (with co-corrector) [3] | EC50 [4] | Maximum % activity (with co-corrector) [5] | EC50 [6] | EC50 [7] | Maximum % activity (with co-corrector) [8] | Emax [9] | Emax [10] | Maximum % activity (without co-corrector) [9] | Structure (SMILES)
100 to 200% | < 1000 nM | +++ (≥350) | < 1000 nM | – | – | – | – | – | – | – | COc1ncc(-c2ccccc2F)cc1CN[C@H]1[C@H](C(C)(C)C)[C@@H](C(=O)O)N(C(=O)C2CCCCC2)[C@H]1c1ccccc1F [II-424]
– | – | – | – | – | 1000 to 10000 nM | 1000 to 10000 nM | ++ (≥150 and <350) | < 100% | – | – | COc1ncc(C2CCC2)cc1CN[C@H]1[C@H](C(C)(C)C)[C@@H](C(=O)O)N(C(=O)C2CCC2)[C@H]1c1ccccc1C(F)(F)F [Example I-278]
– | – | – | – | – | < 1000 nM | < 1000 nM | +++ (≥350) | > 200% | – | – | COc1ncc(C2CCCCC2)cc1CN[C@H]1[C@H](C(C)(C)OC)[C@@H](C(=O)O)N(C(=O)C2CCCCC2)[C@H]1c1ccccc1 [II-252]
100 to 200% | < 1000 nM | +++ (≥350) | < 1000 nM | – | – | – | – | – | – | – | COc1ncc(C(F)(F)F)cc1CN[C@H]1[C@H](C(C)(C)C)[C@@H](C(=O)O)N(C(=O)C2CCC(F)(F)C2)[C@H]1c1ccccc1C(C)C (some centres unmarked) [II-589]
– | – | – | – | – | 1000 to 10000 nM | 1000 to 10000 nM | ++ (≥150 and <350) | < 100% | – | – | COc1cc(CN[C@H]2[C@H](C(C)(C)C)[C@@H](C(=O)O)N(C(=O)C3CCCCC3)[C@H]2c2ccccc2)c(F)cc1Cl [II-104]
< 100% | > 10000 nM | – | 1000 to 10000 nM | ++ (≥150 and <350) | – | – | – | – | – | – | CC(C)(C)[C@H]1[C@H](NCc2cc(Cl)c3c(c2)OCO3)[C@H](c2ccccc2)N(C(=O)C2CCCCC2)[C@@H]1C(=O)O [III-140]
– | 1000 to 10000 nM | – | < 1000 nM | +++ (≥350) | – | – | – | – | > 200% | – | COc1ncc(C2CCC2)cc1CN[C@H]1[C@H](C(C)(C)C)[C@@H](C(=O)O)N(C(=O)OC(C)C)[C@H]1c1ccccc1C(C)C [Example 68, (2S,3S,4S,5S)-3-tert-butyl-4-{[(5-cyclobutyl-2-methoxypyridin-3-yl)methyl]amino}-1-{[(propan-2-yl)oxy]carbonyl}-5-[2-(propan-2-yl)phenyl]pyrrolidine-2-carboxylic acid]
– | 1000 to 10000 nM | – | 1000 to 10000 nM | +++ (≥350) | – | – | – | – | 100 to 200% | – | COc1ncc(C2CCC2)cc1CN[C@H]1[C@H](C(C)(C)C)[C@@H](C(=O)O)N(C(=O)[C@@H]2CCCO2)[C@H]1c1ccccc1Cl [Example 103, (2S,3S,4S,5S)-3-tert-butyl-5-(2-chlorophenyl)-4-{[(5-cyclobutyl-2-methoxypyridin-3-yl)methyl]amino}-1-[(2S)-oxolane-2-carbonyl]pyrrolidine-2-carboxylic acid]
< 100% | 1000 to 10000 nM | ++ (≥150 and <350) | < 1000 nM | – | – | – | – | – | – | – | COc1ccc(CN[C@@H]2[C@@H](C(C)(C)C)[C@H](C(=O)O)N(C(=O)C3CCCCC3)[C@@H]2c2ccccc2)c(OC)c1Cl (racemic) [III-15]
